Starred links: 1 amine or outer side, 2 acyl side, 3 side chain; linkers in the order of their positions; H or OH if unused. Positions of bridges follow the written chain, without caps; N, C: chain ends. Non-standard residues stand in square brackets, D forms with d. Residues, ends and D or L forms follow the SMILES beside them. *: point of attachment. pTerphenylCO(4''-OnC5H11) = CCCCCOc1ccc(-c2ccc(-c3ccc(C(=O)*)cc3)cc2)cc1; Orn(4R-OH,5R-OH) = O=C([C@H](C[C@@H](O)[C@@H](O)N[*:3])N[*:1])[*:2]; hTyr(3S-OH,4S-OH) = N[C@H](C(=O)O)[C@H](O)[C@@H](O)c1ccc(O)cc1; Pro(3S-OH,4S-Me) = C[C@H]1CN[C@H](C(=O)O)[C@H]1O; Hyp = O=C(O)[C@@H]1C[C@@H](O)CN1
Assay: Steady state AUC in human at 100 mg/day
Format: ADME, organism-based
Conditions: in vivo

CCCCCOc1ccc(-c2ccc(-c3ccc(C(=O)N[C@H]4C[C@@H](O)[C@@H](O)NC(=O)[C@@H]5[C@@H](O)[C@@H](C)CN5C(=O)[C@H]([C@@H](C)O)NC(=O)[C@H]([C@H](O)[C@@H](O)c5ccc(O)cc5)NC(=O)[C@@H]5C[C@@H](O)CN5C(=O)[C@H]([C@@H](C)O)NC4=O)cc3)cc2)cc1 [ANIDULAFUNGIN] ({pTerphenylCO(4''-OnC5H11)}-[Orn(4R-OH,5R-OH)]T[Hyp][hTyr(3S-OH,4S-OH)]T[Pro(3S-OH,4S-Me)]; lactam 1-C)
AUC: 112 µg·h/mL
